One experiment relates to Bowes cells. Put plainly: Cell viability measurement (CellTiter-Glo). The format is cell-based, human. The note with it: 24 h in 10% FBS-MEM. Here is the method: Bowes human melanoma cells were obtained from American Type Culture Collection (Manassas, Va.). Bowes cells were cultured in Minimal Essential Medium with Earie's sats complemented with Glutamax-I, non-essential amino acids, sodium pyruvate, penicillin, streptomycin (referred on figures as “MEM”) and 10% foetal bovine serum (FBS). All media components for Bowes cells were from invitrogen Corporation (Paisley, UK). Trypsin/EDTA was from PAA laboratories GmbH (Linz, Austria). Cells were subcultured once a week, seeding 200 000 cells per T75. For the viability assays, 50 000 cells (in 300 μl) were seeded per a well in a 24-well-plate a day before the experiment. K562 human erythroleukemia cells were obtained from American Type Culture Collection (Manassas, Va.). K562 cells were cultured in RPMI-1640 medium complemented with Glutamax-I, penicillin, streptomycin (referred in FIG. 32-35 as “RPMI”) and foetal bovine serum (7.5%). All media components for K562 cells were from invitrogen Corporation (Paisley, UK). […]
The stock solutions of the conjugates (1 mM) were prepared in sterile water and the stock solution of MTX in 10% DMSO in water. […] Then 300 μl was transferred to a white polystyrene FluoroNunc™ plate (Nunc A/S, Roskilde, Denmark) and luminescence was recorded at dual-scanning microplate spectrofluorometer (SPECTRAmax® GEMINI XS, Molecular Devices, Sunnyvale, Calif.).

A further experiment has as its system LoVo cells. Put plainly: Internalisation of biotinylated selCPPs, fluorescence microscopy. The format is cell-based, human. Here is the method: One aspect of the present invention thus comprises a method for screening the cellular uptake of a broad variety of CPPs in vitro, wherein cells are grown on glass cover slips to suitable, such as 50%, density, whereupon the media is changed to serum free and a blotinylated peptide solution is added. The cells are then incubated, washed, fixed and the peptides are visualised by staining with, e.g. avidin-FITC, or streptavidin-TRITC, and the cell nuclei are counterstained, e.g. with Hoechst. Images are preferably obtained with a fluorescence microscope and evaluated.
FIG. 5. Example of inactivated selCPP. Internalisation of YTA-2 (A) compared to YTA-2 ps (B) In LoVo cells, both biotynilated peptides detected by TRITC-avidin at 37° C.
The cells were grown on round glass cover slips (12 mm, GTF, Sweden) in a 24-well plate to approximately 50% confluence. The media was changed to serum free and the biotinylated peptide solutions were added. The cells were incubated for 30 min at 37 or 4° C. The cells were washed twice with PBS, fixed with 4% paraformaldehyde solution 15 min at room temperature (dark) and then permeabilised in 30 mM HEPES buffer containing 0.5% w/v Triton X-100, 3 min on Ice. Sites for unspecific binding were blocked In PBS containing 3% (w/v) bovine serum albumin, overnight at 4° C. The peptides were visualised by staining with avidin-FrTC or streptavidin-TRITC (Molecular Probes, the Netherlands). The cell nuclei were stained with Hoechst 33258 (0.5 μg/ml) for 5 min, after which the cover slips were washed 3 times with PBS and mounted in 25% glycerol in PBS. The images were obtained with a Leica DM IRE2 fluorescence microscope (Leica Microsystem., Sweden) and processed in PhotoShop 6.0 software (Adobe Systems Inc., CA) (See e.g. FIG. 38-40).

The next experiment has as its target T1, MMP2 (Homo sapiens, UniProt P08253).
T1 construct: check the specific cleavage of YTA-2 ps by active MMP-2
T1 sequence (P08253 110-660): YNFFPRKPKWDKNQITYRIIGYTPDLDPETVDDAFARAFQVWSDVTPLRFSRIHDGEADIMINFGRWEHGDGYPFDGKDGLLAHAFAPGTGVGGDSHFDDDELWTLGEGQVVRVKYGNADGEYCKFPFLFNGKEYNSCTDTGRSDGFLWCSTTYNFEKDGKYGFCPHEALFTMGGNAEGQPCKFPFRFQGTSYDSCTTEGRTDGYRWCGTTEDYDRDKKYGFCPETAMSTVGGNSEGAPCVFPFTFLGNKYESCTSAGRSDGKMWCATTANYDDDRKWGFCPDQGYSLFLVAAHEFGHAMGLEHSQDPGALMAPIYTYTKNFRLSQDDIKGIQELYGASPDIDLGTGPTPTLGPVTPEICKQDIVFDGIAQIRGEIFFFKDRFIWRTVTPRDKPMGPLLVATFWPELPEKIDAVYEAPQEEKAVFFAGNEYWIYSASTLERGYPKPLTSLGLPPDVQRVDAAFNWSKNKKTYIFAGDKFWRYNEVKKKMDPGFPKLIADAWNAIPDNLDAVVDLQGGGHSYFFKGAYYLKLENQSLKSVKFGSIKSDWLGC
Put plainly: Specific cleavage by matrix metallo proteinase-2. The format is biochemical. The note with it: mass spectrometry, data not shown. On the procedure:
(data not shown). […] The next step in the development of this technique is to check the specific cleavage of YTA-2 ps by active MMP-2. It is performed by a fluorescence/quencher assay, wherein the MMP-2 substrate YTA-2 ps upon cleavage increases in fluorescence intensity. The correct cleavage is further checked by mass spectrometry.

In another experiment the test system is cells. Put plainly: Protein internalisation by YTA-2 of Fluo-Streptavidin. The format is cell-based. The note with it: 67 kDa fluorescein labelled streptavidin linked to biotinylated peptide. Here is the method: FIG. 39. Protein internalisation by YTA-2 of Fluo-Streptavidin 37° C. and T/E, showing the delivery property of a selCPP.
FIG. 40. Protein internalisation by YTA-2 of Fluo-Streptavidin 4° C. and T/E, showing the delivery property and temperature independency of a selCPP.

As for Apa-γGlu-Gly-pVEC, the “toxic effect on cell viability” value in the experiment on Bowes cells was “more toxic than Apa-Glu-Gly-pVEC”.

For the substance YTAIAWVKAFIRKLRK [YTA-2], the “Comment (staining/localisation)” value in the experiment with LoVo cells is listed as “stain also nuclear”. The Entry into cells result in the experiment with LoVo cells (37° and 4° C.) is “can efficiently enter cells”. Besides, the “cleavage by MMP2” value with MMP2 was “confirmed by mass spectrometry”. In addition, the cargo transport entry in the experiment with cells is reported as “can transport large cargo molecules into cells”.

The values are drawn from patent publication US20080234183A1, “Cell Penetrating Peptides” (priority 2002, published 2008).
